# Measurements from patent publication US20260013504A1, “HERBICIDAL MIXTURE, HERBICIDAL COMPOSITION, METHOD, USE, AND KITS FOR CONTROLLING UNDESIRABLE VEGETATION” (ADAMA AGAN LTD., priority 2022, published 2026).
# What was measured:
# Type in all cases: in vivo
# Lolium multiflorum Lamk = test: Pot experiment, soil treatment, control of Lolium multiflorum Lamk (fresh weight, Colby); details: mixtures: both AIs at these rates, after 35 days
# Method: (§1) Referring to an article of Colby, S. R. i.e., Calculation of the synergistic and antagonistic response of herbicide combinations.
# (§2) E0-E value is calculated to evaluate the combined effect of pyroxasulfone and the second herbicide selected from the group consisting of fluorochloridone, aclonifen, diflufenican and terbutryn on the selected weeds.
# (§3) In this Example, the herbicidal activity of treatments by a mixture of pyroxasulfone and the second herbicide selected from the group consisting of fluorochloridone, aclonifen, diflufenican and terbutryn for controlling Aegilops tauschii was investigated by a pot experiment. This Example was carried out in accordance with “NY/T 1155.4-2006 Guidelines for Indoor Bioassay Tests of Pesticides, Herbicides Part 4: Activity Determination Tests, Stem and Leaf Spray Method”. • Source of the agrochemicals tested were: • Pyroxasulfone: pyroxasulfone (850g/Kg, WG) from Adama Agan LTD. • Fluorochloridone: fluorochloridone (250 g/L, EC) from Adama Agan LTD. • Aclonifen: aclonifen (600 g/L, SC) from Adama Agan LTD. • Diflufenican: diflufenican (50g/Kg, WP) from Bayer. • Terbutryn: terbutryn (50g/Kg, SC) from Zhejiang Zhongshan Chemical Industry Group Co., Ltd. • Cultivation of test materials: The test soil was formed by mixing the 20 cm layer loam on the ground surface and the culture medium in a ratio of 3:1 as cultivation soil. Weeds were cultivated in an artificial climate chamber. The daytime and nighttime temperatures were set at 22° C. and 19° C., respectively, and the illumination was set at daytime: dark time 12h: 12h.
# (§4) A certain amount of Aegilops tauschii seeds were sown in a plastic pot with a diameter of 9 cm, covering with 1-2 mm soil, and putting them in an enamel dish filled with water. The bottom infiltration method was used to water them, the agrochemicals tested in this Example were applied on the second day after sowing Aegilops tauschii seeds.
# (§5) Spraying treatment: ASS-4 automatic control spraying system with a fan-shaped nozzle was used indoors to spray the agrochemicals, the running speed was adjusted based on nozzle pressure, flow rate, etc. to spray 50 mL of liquid of agrochemicals on the actual spray area of 1.1 m2 (equivalent to 30 liters per mu), arranging the plastic pots to be processed on the spraying table evenly, and spraying evenly. The spraying pressure was 0.35 MPa, and the flow rate of the fan-shaped nozzle was 800 mL/min, spraying in order from low dosage to high dosage. Each treatment was repeated 3 times. After spraying, the plastic pots were dried for one day, placed in an artificial climate chamber, and watered regularly to keep moist.
# (§6) Weed investigation method and time: after applying the agrochemicals, the symptoms of weed damage (such as growth inhibition, chlorosis, deformity, etc.) were recorded in detail. After 35 days, the fresh weight of aerial part of the weeds in each treatment was weighed, and the measured fresh weight inhibition rate and the measured fresh weight survival rate for each treatment were calculated according to the following equations: […]
# Example 2 was conducted in substantially the same way as Example 1, except that Lolium multiflorum Lamk was used instead of Aegilops tauschii.
# Lithospermum arvense = test: Pot experiment, soil treatment, control of Lithospermum arvense (fresh weight, Colby)
# Method: as §1, §2, §3, §4, §5, §6
# Example 5 was conducted substantially the same way as Example 1, except that Lithospermum arvense was used instead of Aegilops tauschii.
# Solanum nigrum = test: Pot experiment (glass greenhouse), soil treatment, control of Solanum nigrum (fresh weight, Colby)
# Method: as §1, §2, §3, §4, §5, §6
# Example 6 was substantially conducted in the same as Example 1, except that (1) Solanum nigrum was used instead of Aegilops tauschii, (2) in “Cultivation of test materials” part, Solanum nigrum was cultivated in a glass greenhouse instead of an artificial climate chamber at a temperature of 25 to 33° C. with a natural illumination, and (3) in “Spraying treatment” part, after spraying and drying, the plastic pots were placed in a glass greenhouse instead of an artificial climate chamber.
# Bromus japonicus = test: Pot experiment, soil treatment, control of Bromus japonicus (fresh weight, Colby); details: mixtures: both AIs at these rates, after 35 days
# Method: as §1, §2, §3, §4, §5, §6
# Example 3 was conducted in substantially the same way as Example 1, except that Bromus japonicus was used instead of Aegilops tauschii.
# Galium aparine = test: Pot experiment, soil treatment, control of Galium aparine (fresh weight, Colby)
# Method: as §1, §2, §3, §4, §5, §6
# Example 4 was conducted substantially the same way as Example 1, except that Galium aparine was used instead of Aegilops tauschii.
# Aegilops tauschii = test: Pot experiment, soil treatment, control of Aegilops tauschii (fresh weight, Colby); details: mixtures: both AIs at these rates, after 35 days
# Excerpt: as §1
# E0 is the theoretical fresh weight survival rate for the mixture of pyroxasulfone and the second herbicide selected from the group consisting of fluorochloridone, aclonifen, diflufenican and terbutryn;
# X is the measured fresh weight survival rate for pyroxasulfone used alone at the same dosage as that in the mixture;
# Y is the measured fresh weight survival rate for the second herbicide selected from the group consisting of fluorochloridone, aclonifen, diflufenican and terbutryn used alone at the same dosage as that in the mixture;
# E is the measured fresh weight survival rate for the mixture of pyroxasulfone and the second herbicide selected from the group consisting of fluorochloridone, aclonifen, diflufenican and terbutryn.
# as §2, §3, §4, §5, §6
# [1] = g ai/ha: pyroxasulfone 11.25, fluorochloridone 31.25, aclonifen 150, diflufenican 14.0625, terbutryn 140.625
# [2] = g ai/ha: pyroxasulfone 22.5, fluorochloridone 62.5, aclonifen 300, diflufenican 28.125, terbutryn 281.25
# [3] = g ai/ha: pyroxasulfone 45, fluorochloridone 125, aclonifen 600, diflufenican 56.25, terbutryn 562.5
# [4] = g ai/ha: pyroxasulfone 90, fluorochloridone 250, aclonifen 1200, diflufenican 112.5, terbutryn 1125
# [5] = g ai/ha: pyroxasulfone 180, fluorochloridone 500, aclonifen 2400, diflufenican 225, terbutryn 2250
# [6] = g ai/ha: pyroxasulfone 360, fluorochloridone 1000, aclonifen 4800, diflufenican 450, terbutryn 4500
smiles,measurement,setting,value
"Nc1c([N+](=O)[O-])ccc(Oc2ccccc2)c1Cl [aclonifen, 2-chloro-6-nitrio-3-phenoxyaniline]",Measured fresh weight inhibition rate (%),Lolium multiflorum Lamk; [1],89.1%
same,Measured fresh weight survival rate (%) - E,Lolium multiflorum Lamk; [1],10.9%
same,Measured fresh weight inhibition rate (%),Lolium multiflorum Lamk; [2],96.4%
same,Measured fresh weight survival rate (%) - E,Lolium multiflorum Lamk; [2],3.6%
same,Measured fresh weight inhibition rate (%),Lolium multiflorum Lamk; [3],99.5%
same,Measured fresh weight survival rate (%) - E,Lolium multiflorum Lamk; [3],0.5%
same,Measured fresh weight inhibition rate (%),Lolium multiflorum Lamk; [4],100.0%
same,Measured fresh weight survival rate (%) - E,Lolium multiflorum Lamk; [4],0.0%
same,Measured fresh weight inhibition rate (%),Lolium multiflorum Lamk; [5],100.0%
same,Measured fresh weight survival rate (%) - E,Lolium multiflorum Lamk; [5],0.0%
same,Measured fresh weight inhibition rate (%),Lolium multiflorum Lamk; [6],100.0%
same,Measured fresh weight survival rate (%) - E,Lolium multiflorum Lamk; [6],0.0%
same,Measured fresh weight survival rate (%) - E,Lithospermum arvense; 150 g ai/ha,43.5%
same,Measured fresh weight survival rate (%) - E,Lithospermum arvense; 300 g ai/ha,13.0%
same,Measured fresh weight survival rate (%) - E,Lithospermum arvense; 600 g ai/ha,1.4%
same,Measured fresh weight survival rate (%) - E,Lithospermum arvense; 1200 g ai/ha,0.0%
same,Measured fresh weight survival rate (%) - E,Lithospermum arvense; 2400 g ai/ha,0.0%
same,inhibition at 150 g/ha,"Lithospermum arvense; Buglossoides arvensis, soil, 150 g ai/ha, read-out: Measured fresh weight inhibition rate (%)",56.5%
same,inhibition at 300 g/ha,"Lithospermum arvense; Buglossoides arvensis, soil, 300 g ai/ha, read-out: Measured fresh weight inhibition rate (%)",87%
same,inhibition at 600 g/ha,"Lithospermum arvense; Buglossoides arvensis, soil, 600 g ai/ha, read-out: Measured fresh weight inhibition rate (%)",98.6%
same,inhibition at 1200 g/ha,"Lithospermum arvense; Buglossoides arvensis, soil, 1200 g ai/ha, read-out: Measured fresh weight inhibition rate (%)",100%
same,inhibition at 2400 g/ha,"Lithospermum arvense; Buglossoides arvensis, soil, 2400 g ai/ha, read-out: Measured fresh weight inhibition rate (%)",100%
same,Measured fresh weight survival rate (%) - E,Solanum nigrum; 150 g ai/ha,87.1%
same,Measured fresh weight survival rate (%) - E,Solanum nigrum; 300 g ai/ha,82.7%
same,Measured fresh weight survival rate (%) - E,Solanum nigrum; 600 g ai/ha,69.4%
same,Measured fresh weight survival rate (%) - E,Solanum nigrum; 1200 g ai/ha,56.9%
same,Measured fresh weight survival rate (%) - E,Solanum nigrum; 2400 g ai/ha,26.3%
same,inhibition at 150 g/ha,"Solanum nigrum; Solanum nigrum, soil, 150 g ai/ha, read-out: Measured fresh weight inhibition rate (%)",12.9%
same,inhibition at 300 g/ha,"Solanum nigrum; Solanum nigrum, soil, 300 g ai/ha, read-out: Measured fresh weight inhibition rate (%)",17.3%
same,inhibition at 600 g/ha,"Solanum nigrum; Solanum nigrum, soil, 600 g ai/ha, read-out: Measured fresh weight inhibition rate (%)",30.6%
same,inhibition at 1200 g/ha,"Solanum nigrum; Solanum nigrum, soil, 1200 g ai/ha, read-out: Measured fresh weight inhibition rate (%)",43.1%
same,inhibition at 2400 g/ha,"Solanum nigrum; Solanum nigrum, soil, 2400 g ai/ha, read-out: Measured fresh weight inhibition rate (%)",73.7%
same,Measured fresh weight inhibition rate (%),Bromus japonicus; [1],45.4%
same,Measured fresh weight survival rate (%) - E,Bromus japonicus; [1],54.6%
same,Measured fresh weight inhibition rate (%),Bromus japonicus; [2],86.6%
same,Measured fresh weight survival rate (%) - E,Bromus japonicus; [2],13.4%
same,Measured fresh weight inhibition rate (%),Bromus japonicus; [3],100.0%
same,Measured fresh weight survival rate (%) - E,Bromus japonicus; [3],0.0%
same,Measured fresh weight inhibition rate (%),Bromus japonicus; [4],100.0%
same,Measured fresh weight survival rate (%) - E,Bromus japonicus; [4],0.0%
same,Measured fresh weight inhibition rate (%),Bromus japonicus; [5],100.0%
same,Measured fresh weight survival rate (%) - E,Bromus japonicus; [5],0.0%
same,Measured fresh weight survival rate (%) - E,Galium aparine; 150 g ai/ha,79.5%
same,Measured fresh weight survival rate (%) - E,Galium aparine; 300 g ai/ha,63.0%
same,Measured fresh weight survival rate (%) - E,Galium aparine; 600 g ai/ha,9.6%
same,Measured fresh weight survival rate (%) - E,Galium aparine; 1200 g ai/ha,0.0%
same,Measured fresh weight survival rate (%) - E,Galium aparine; 2400 g ai/ha,0.0%
same,inhibition at 150 g/ha,"Galium aparine; Galium aparine, soil, 150 g ai/ha, read-out: Measured fresh weight inhibition rate (%)",20.5%
same,inhibition at 300 g/ha,"Galium aparine; Galium aparine, soil, 300 g ai/ha, read-out: Measured fresh weight inhibition rate (%)",37%
same,inhibition at 600 g/ha,"Galium aparine; Galium aparine, soil, 600 g ai/ha, read-out: Measured fresh weight inhibition rate (%)",90.4%
same,inhibition at 1200 g/ha,"Galium aparine; Galium aparine, soil, 1200 g ai/ha, read-out: Measured fresh weight inhibition rate (%)",100%
same,inhibition at 2400 g/ha,"Galium aparine; Galium aparine, soil, 2400 g ai/ha, read-out: Measured fresh weight inhibition rate (%)",100%
same,Measured fresh weight inhibition rate (%),Aegilops tauschii; [1],6.1%
same,Measured fresh weight survival rate (%) - E,Aegilops tauschii; [1],93.9%
same,Measured fresh weight inhibition rate (%),Aegilops tauschii; [2],25.0%
same,Measured fresh weight survival rate (%) - E,Aegilops tauschii; [2],75.0%
same,Measured fresh weight inhibition rate (%),Aegilops tauschii; [3],26.2%
same,Measured fresh weight survival rate (%) - E,Aegilops tauschii; [3],73.8%
same,Measured fresh weight inhibition rate (%),Aegilops tauschii; [4],70.1%
same,Measured fresh weight survival rate (%) - E,Aegilops tauschii; [4],29.9%
same,Measured fresh weight inhibition rate (%),Aegilops tauschii; [5],74.4%
same,Measured fresh weight survival rate (%) - E,Aegilops tauschii; [5],25.6%
same,Measured fresh weight inhibition rate (%),Aegilops tauschii; [6],97.6%
same,Measured fresh weight survival rate (%) - E,Aegilops tauschii; [6],2.4%
